The results in this text go back to patent US20100216823A1 (Pfizer Inc., priority 2007, published 2010).

Where only a bound is given, the exact number is not on record here.

What all share (assay type): biochemical
For assay [1], the target named is T1, PDE1C (Homo sapiens, UniProt Q14123).
T1 construct: cell lysate containing full length PDE7A, PDE7B and PDE1C enzyme; made in house; host or cells: cell lysate
Kind of assay: PDE1C [3H]-cAMP scintillation proximity assay (SPA) enzyme inhibition. The settings on record: full length PDE1C in cell lysate; 75 nM cAMP; Ki from IC50 by Cheng-Prussof equation. The protocol: (§1) The ability of the compounds of formula (I) to inhibit PDE7 and PDE1 may be measured using the following assay protocol.
(§2) PDE7A, PDE7B and PDE1C enzymes catalyse the hydrolysis of 3′,5′-cyclic adenosine monophosphate (cAMP) to the 5′ adenosine monophosphate, 5′AMP. In a multiwell plate, PDE enzyme, [^3H]-cAMP and the test compounds, are incubated at room temperature. The incubation is terminated by addition of commercially available yttrium silicate scintillation proximity assay (SPA) beads containing zinc sulphate. The yttrium silicate beads preferentially bind linear nucleotides, thus the product of the enzyme reaction, [^3H]-5′AMP binds to the bead to produce a light signal, which is detected by a scintillation counter. The amount of signal produced directly correlates with the amount of product formed, and thus the activity of the enzyme. The maximum signal is obtained where enzyme and substrate are incubated alone. The background signal is measured from wells either containing no enzyme, or from wells containing a supra-maximal concentration of a known PDE 7A/7B/1C inhibitor. Each purified batch of enzyme is quality controlled and its Km, Vmax and specific activity determined from kinetic studies before use in compound inhibition studies. The inhibition of the enzyme, by a test compound, is calculated relative to the maximum and background responses.
(§3) The compound of Example 75 of WO 02/074754, 5′-carboxypropoxy-8′-chloro-spiro[cyclohexane-1-4′-(3′,4′-dihydro)quinazolin]-2′(1′H)-one (referred to as compound A hereafter) was used as a standard for PDE7A and PDE7B. The compound of Example 32 of WO 02/074754, 4-(8′-chloro-2′-oxo-2′,3′-dihydro-1′H-spiro[cyclohexane-1,4′-quinazolin]-6′-yl)benzoic acid (referred to as compound B hereafter) was used as a standard for PDE1C.
(§4) The optimisation of this assay has been carried out using cell lysate containing full length PDE7A, PDE7B and PDE1C enzyme. The concentration of the enzyme in this cell lysate sample is unknown, so the specific activity of the cell lysate is used as a measure to ensure that the same activity per well is used despite any batch-to-batch variation of concentration/activity.
(§5) PDE7A/7B/1C stock enzyme was prepared and kept at −20° C. in appropriately sized aliquots to reduce the number of freeze/thaw cycles. […] PDE7A is diluted to 1/8000, PDE7B to 1/10000 and PDE1C to 1/200000.
The final assay [cAMP]=75 nM therefore the required solution [cAMP]=0.15 μM (1/2 dilution in assay plate)
(§6) 1 μl test compound was transferred into a suitable multi-well assay plate immediately prior to reagent assay addition, 14 μl enzyme solution was then added to the assay plate, followed by 15 μl substrate solution (ie: final assay volume 30 μl, with a final screening compound concentration of 1 μM for PDE7A and PDE7B and 10 μM for PDE1C). The plate was then sealed using a plate sealer and incubated at room temperature for 45 min on the plate shaker.
(§7) 30 μl Yttrium Silicate PDE4 SPA beads were then added, ensuring constant stirring of the beads to give even distribution in the assay plate. The plate was then sealed using a plate sealer and incubated at room temperature for 30 mins on the plate shaker. The beads were then allowed to settle for 30 mins, before spinning the plates for 1 min at 200 g.
(§8) The plates were then read on a suitable radioactive counter, for example NXT-TopCount™ (available from Perkin Elmer) using the relevant protocol (30 second read time per well).
(§9) The data was fitted to a sigmoid curve using a least squares algorithm.
(§10) The IC50 value was converted to a value using the Cheng-Prussof equation: […]
In general terms: Scintillation proximity formats need no separation of bound from free tracer.

Assay [2] deals with T2, PDE7A (Homo sapiens, UniProt Q13946).
T2 construct: cell lysate containing full length PDE7A, PDE7B and PDE1C enzyme; made in house; host or cells: cell lysate
Briefly: PDE7A [3H]-cAMP scintillation proximity assay (SPA) enzyme inhibition. The conditions noted are these: for Ki: full length PDE7A in cell lysate, ~25 nM cAMP, Ki from IC50 by Cheng-Prussof equation; for 1C/7A selectivity: ratio PDE1C Ki / PDE7A Ki. How it is done: as §1, §2, §3, §4, §5
(§11) The final assay [cAMP] of ˜25 nM is required, so ˜50 nM [^3H]-cAMP was prepared. 9 ml of substrate solution was prepared by mixing 10.8 μl of [^3H]-cAMP (available from Amersham) with 8975 μl of assay buffer.
as §6, §7, §8, §9, §10

In assay [3] the target is T3, PDE7B (Homo sapiens, UniProt Q9NP56).
T3 construct: cell lysate containing full length PDE7A, PDE7B and PDE1C enzyme; made in house; host or cells: cell lysate
Briefly: PDE7B [3H]-cAMP scintillation proximity assay (SPA) enzyme inhibition. The conditions noted are these: for Ki: full length PDE7B in cell lysate, ~25 nM cAMP, Ki from IC50 by Cheng-Prussof equation; for 1C/7B selectivity: ratio PDE1C Ki / PDE7B Ki. The protocol:
as §1, §2, §3, §4, §5, §11, §6, §7, §8, §9, §10

T2 sequence (Q13946 whole entry): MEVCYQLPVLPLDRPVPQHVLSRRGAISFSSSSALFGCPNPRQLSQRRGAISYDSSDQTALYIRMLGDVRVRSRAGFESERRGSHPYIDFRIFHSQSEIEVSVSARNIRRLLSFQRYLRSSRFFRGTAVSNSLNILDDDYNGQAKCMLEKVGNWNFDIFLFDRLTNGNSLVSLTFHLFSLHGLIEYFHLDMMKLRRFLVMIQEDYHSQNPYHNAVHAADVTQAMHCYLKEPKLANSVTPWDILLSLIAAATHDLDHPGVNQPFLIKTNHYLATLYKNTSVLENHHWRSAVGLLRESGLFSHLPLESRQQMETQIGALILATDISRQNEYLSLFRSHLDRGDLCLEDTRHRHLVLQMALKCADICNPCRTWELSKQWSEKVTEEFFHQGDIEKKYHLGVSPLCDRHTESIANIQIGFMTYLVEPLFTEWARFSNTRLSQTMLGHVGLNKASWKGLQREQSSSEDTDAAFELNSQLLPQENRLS
T3 sequence (Q9NP56 whole entry): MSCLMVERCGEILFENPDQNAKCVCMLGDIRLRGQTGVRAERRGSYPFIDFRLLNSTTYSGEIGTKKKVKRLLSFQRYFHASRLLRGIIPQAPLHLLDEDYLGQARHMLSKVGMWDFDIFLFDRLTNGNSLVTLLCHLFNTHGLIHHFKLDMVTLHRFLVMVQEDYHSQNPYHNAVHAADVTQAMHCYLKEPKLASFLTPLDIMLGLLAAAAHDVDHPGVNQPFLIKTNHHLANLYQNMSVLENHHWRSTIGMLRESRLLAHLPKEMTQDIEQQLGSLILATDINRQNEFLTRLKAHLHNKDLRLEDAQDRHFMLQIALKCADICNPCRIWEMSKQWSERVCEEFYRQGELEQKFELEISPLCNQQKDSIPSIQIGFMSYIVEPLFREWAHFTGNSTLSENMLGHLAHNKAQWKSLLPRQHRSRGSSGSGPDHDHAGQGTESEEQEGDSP
T1 sequence (Q14123 whole entry): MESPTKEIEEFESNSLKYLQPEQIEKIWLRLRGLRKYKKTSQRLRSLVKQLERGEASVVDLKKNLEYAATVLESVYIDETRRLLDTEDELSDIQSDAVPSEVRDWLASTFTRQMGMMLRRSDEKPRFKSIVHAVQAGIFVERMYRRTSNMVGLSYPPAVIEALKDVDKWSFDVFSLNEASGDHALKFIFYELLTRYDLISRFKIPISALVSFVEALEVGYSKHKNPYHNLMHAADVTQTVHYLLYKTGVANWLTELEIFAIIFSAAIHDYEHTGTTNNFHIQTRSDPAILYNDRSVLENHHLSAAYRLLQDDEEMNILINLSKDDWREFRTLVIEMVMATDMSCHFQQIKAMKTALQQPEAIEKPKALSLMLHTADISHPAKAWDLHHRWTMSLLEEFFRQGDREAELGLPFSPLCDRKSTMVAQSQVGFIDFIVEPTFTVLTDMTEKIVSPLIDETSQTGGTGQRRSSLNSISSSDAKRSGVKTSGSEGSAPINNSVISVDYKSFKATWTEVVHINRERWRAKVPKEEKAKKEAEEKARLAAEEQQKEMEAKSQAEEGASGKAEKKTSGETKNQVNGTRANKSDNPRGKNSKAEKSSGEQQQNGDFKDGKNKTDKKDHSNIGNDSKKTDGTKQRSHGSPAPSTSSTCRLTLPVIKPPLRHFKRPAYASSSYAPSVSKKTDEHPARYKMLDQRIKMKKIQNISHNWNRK

For the molecule `O=C1Nc2c(Cl)ccc(Oc3c(Cl)cccc3C(=O)O)c2C2(CCCCC2)N1` [Example 8, 3-chloro-2-{(8′-chloro-2′-oxo-2′,3′-dihydro-1′H-spiro[cyclohexane-1,4′-quinazolin]-5′-yl)oxy}benzoic acid], the Ki in assay [1] was 1810 nM; in assay [2] it was 4.8 nM; in assay [3], 9.4 nM. The 1C/7A selectivity in assay [2] is 380. In addition, in assay [3], the 1C/7B selectivity is on record as 192.

Molecule `O=C1Nc2c(Cl)ccc(Oc3c(F)cccc3-c3noc(=O)[nH]3)c2C2(CCCCC2)N1` [Example 18, 8′-chloro-5′-[2-fluoro-6-(5-oxo-4,5-dihydro-1,2,4-oxadiazol-3-yl)phenoxy]-1′H-spiro[cyclohexane-1,4′-quinazolin]-2′(3′H)-one] came in with a Ki in assay [1] of 94 nM. Moreover, in assay [2], affinity was put at a Ki of 1.1 nM and the 1C/7A selectivity was found to be 85. In assay [3], the Ki was 1.6 nM and the 1C/7B selectivity came to 59.

Take `O=C1Nc2c(Cl)ccc(Oc3c(F)cccc3-c3nn[nH]n3)c2C2(CCCC2)N1` [Example 14, 8′-chloro-5′-[6-fluoro-2-(1H-tetrazol-5-yl)phenoxy]-1′H-spiro[cyclopentane-1,4′-quinazolin]-2′(3′H)-one]: the Ki in assay [1] is 723 nM. Also, in assay [2], the Ki worked out at 2.4 nM and the 1C/7A selectivity is recorded as 301. Also, in assay [3], the Ki worked out at 4.4 nM and the 1C/7B selectivity worked out at 165.

`O=C1Nc2c(Cl)ccc(-c3ccc(F)c(-c4nn[nH]n4)c3)c2C2(CCCCC2)N1` [Example 4] yielded a Ki in assay [1] of 1560 nM. Moreover, in assay [2], the Ki was 7.5 nM and the 1C/7A selectivity is given as 207. In assay [3], affinity was put at a Ki of 45 nM and the 1C/7B selectivity is 35.

Take `O=C1Nc2c(Cl)ccc(Oc3c(F)cccc3-c3n[nH]c(=O)[nH]3)c2C2(CCCCC2)N1` [Example 19, 8′-chloro-5′-[2-fluoro-6-(5-oxo-4,5-dihydro-1H-1,2,4-triazol-3-yl)phenoxy]-1′H-spiro[cyclohexane-1,4′-quinazolin]-2′(3′H)-one]: the Ki in assay [1] is 172 nM; in assay [2], 0.94 nM; in assay [3], 1.5 nM. Further, in assay [2], the 1C/7A selectivity was determined as 183. Also, the 1C/7B selectivity in assay [3] is on record as 115.

As for `O=C1Nc2c(Cl)ccc(-c3ccc(C(=O)O)c(F)c3)c2C2(CCCCC2)N1` [Example 3, 5-[(8′-chloro-2′-oxo-2′,3′-dihydro-1′H-spiro[cyclohexane-1,4′-quinazolin]-4′-yl)]-2-fluorobenzoic acid], affinity in assay [1] was put at a Ki of 2430 nM. Further, in assay [2], affinity was put at a Ki of 11 nM and the 1C/7A selectivity is 218. In assay [3], the Ki turned out to be 101 nM and the 1C/7B selectivity turned out to be 24.

With `O=C1Nc2c(Cl)ccc(Oc3ccc(F)cc3-c3nn[nH]n3)c2C2(CCCCC2)N1` [Example 11, 8′-chloro-5′-[4-fluoro-2-(1H-tetrazol-5-yl)phenoxy]-1′H-spiro[cyclohexane-1,4′-quinazolin]-2′(3′H)-one], the Ki in assay [1] came to 70 nM. In assay [2], the Ki was less than 0.2 nM and the 1C/7A selectivity is reported as greater than 307. Further, in assay [3], the Ki stood at 1 nM and the 1C/7B selectivity is on record as 70.

`O=C1Nc2c(Cl)ccc(-c3ccc(F)c(C(=O)O)c3)c2C2(CCCCC2)N1` [Example 1, 5-[(8′-chloro-2′-oxo-2′,3′-dihydro-1′H-spiro[cyclohexane-1,4′-quinazolin]-5′-yl)]-2-fluorobenzoic acid] had a Ki in assay [1] greater than 5600 nM. In assay [2], the affinity, expressed as Ki, was 3.2 nM and the 1C/7A selectivity is greater than 1750. Moreover, in assay [3], the affinity, expressed as Ki, was 32 nM and the 1C/7B selectivity is greater than 175.

Molecule `O=C1Nc2c(Cl)ccc(Oc3c(F)cccc3C(=O)O)c2C2(CCCC2)N1` [Example 7, 2-{(8′-chloro-2′-oxo-2′,3′-dihydro-1′H-spiro[cyclopentane-1,4′-quinazolin]-5′-oxy}-3-fluorobenzoic acid] returned a Ki in assay [1] of 2260 nM. In assay [2], the affinity corresponds to a Ki of 11 nM and the 1C/7A selectivity was determined as 201. For the same molecule, in assay [3], the Ki turned out to be 21 nM and the 1C/7B selectivity is 107.

In the case of `O=C1Nc2c(Cl)ccc(Oc3ccc(F)cc3-c3nnn[nH]3)c2C2(CCCC2)N1` [Example 13, 8′-chloro-5′-[4-fluoro-2-(1H-tetrazol-5-yl)phenoxy]-1′H-spiro[cyclopentane-1,4′-quinazolin]-2′(3′H)-one], in assay [1], the Ki came to 862 nM. Moreover, in assay [2], the Ki was 1.7 nM and the 1C/7A selectivity was found to be 523. In assay [3], affinity was put at a Ki of 7.2 nM and the 1C/7B selectivity was 119.

As a reminder, the Ki is the equilibrium dissociation constant of an inhibitor or competing ligand from its target.
